Patent US20250017915A1, “METHOD OF TREATING CANCER ASSOCIATED WITH RAS MUTATION” (The Board of Trustees of the University of Illinois, priority 2021, published 2025)

Columns and labels:
[1] = tested on: BRD4 and EP300/CBP; assay: Immunoprecipitation of BRD4 and EP300/CBP, Panc1; type: cell-based, human; conditions: Panc1, 1 μM
Description: For immunoprecipitation, cell lysates were collected using IP buffer (25 mM Tris-HCl pH 7.5, 150 mM NaCl, 1 mM EDTA, 0.1% NP-40 and 5% glycerol) with a protease and phosphatase inhibitory cocktail (Cell Signaling), and cell extracts were incubated overnight with the respective antibodies followed by incubation with protein A or G agarose beads for 4 h at 4° C. After washing 5-7 times with lysis buffer, immunocomplexes were resolved using SDS-PAGE and visualized by western blot. All antibodies were compared with isotype specific IgG controls to affirm specificity. All experiments were performed in triplicate unless otherwise specified.
(§1) Using these same lysates, we also evaluated the association between BRD4 and EP300/CBP by immunoprecipitation.

[2] = tested on: Panc1 cells; assay: Western blot, Panc1; type: cell-based, human
Description: Cell or tissue lysates were lysed in RIPA buffer (Cell Signaling) followed by sonication. Equal amounts of protein (15-50 μg) were mixed with loading dye, boiled for 8 min, separated on a 4-20% denaturing SDS-PAGE gel and transferred to a PVDF membrane. The membrane was blocked in 5% milk/TBS/0.1% Tween for one hour and incubated with antibodies against pRB, pMEK1, MEK1, pERK1/2, ERK1/2, (Cell Signaling, Danvers, MA), H3K27ac (Active Motif, Carlsbad, CA), KRAS (Novus Bio, Saint Charles, MO), BRD4, EP300 (abcam, Cambridge, MA), or GAPDH (Santa Cruz Biotech, Santa Cruz, CA). The membrane was washed with TBS-0.1% Tween and then incubated with HRP conjugated secondary antibody (Cell Signaling) at room temperature for one hour and rewashed. Protein bands were visualized by an enhanced chemiluminescence method (Thermo Fischer, Waltham, MA) and resolved digitally per the manufacturer's specifications.
as §1

[3] = tested on: Panc1 cells; assay: RNA sequencing and gene set enrichment analysis; type: cell-based, human; conditions: Panc1, 1 μM, 24 hours, RNA sequencing
Description: After 24 hours RNA was extracted using the RNeasy Plus Mini Kit (Qiagen, Hilden, Germany) per the manufacturer's instructions. Quality control, sequencing, and data analysis were performed by Novogene.

[4] = tested on: Panc1 cells; assay: Cell growth assay (percent confluence); type: cell-based, human; conditions: Panc1, 1 μM each drug, until DMSO-treated cells reached 100% confluence
Description: (§2) For cell growth assays, a fixed number of serum starved tumor cells were seeded into each well of a 24 well plate to reach 10% confluence, the subsequent percent confluence evaluated every 4 hours until the control group reached 100% confluence. For cell viability assays, 2,000-4,000 cells were seeded into each well of a 96-well plate in serum free DMEM. After 16 hours, media/drug was added and cells cultured for 72 hours. At this time, we added 20 ul of a 5 mg/ml 3-(4,5-Dimethyl-2-thiazolyl)-2,5-diphenyl-2H-tetrazolium bromide (MTT) solution to each well […]. After two hours, media was aspirated and crystals dissolved in DMSO and 570 nm absorbance determined by plate reader.

[5] = tested on: Panc1 cells; assay: Cell viability, MTT assay; type: cell-based, human; conditions: Panc1, increasing concentrations, with or without 1 μM SGC-CBP30, 48 hours
Description: as §2
After 48 hours, we examined changes in cell viability via MTT assay.

[6] = tested on: Pdx1-Cre×LSL-Kras^G12D×LSL-TP53^R172H+/− (KPC) mice; assay: KPC mouse model of invasive PDAC, survival and endpoint tissue analysis; type: in vivo; conditions: XP-524 5 mg/kg daily IP and/or anti-PD-1 200 μg
Text: (§3) Nongenic B6 (Wild Type), P48-Cre×LSL-Kras^G12D (KC), Pdx1-Cre×LSL-Kras^G12D×LSL-TP53^R172H+/− (KPC), and Pdx1-Cre×LSL-Kras^G12D×LSL-TP53^R172H+/+ (KPPC) mice were generated as described previously (24). […] Mice were euthanized at 6 months of age and tissues collected for analysis. […] KPC mice were sacrificed when moribund or showing clear signs of health decline e.g. fur loss, weight loss, or lethargy, or for non-survival studies at the fixed endpoint shown in the number of days after enrollment. For studies involving KPPC mice, animals were enrolled either when developing a 0.5 cm, palpable tumor or at 4 weeks of age. […] For euthanasia, animals were deeply anesthetized with isoflurane until unresponsive to toe tap and/or agonal breathing was observed. Thoracotomy served as the primary method of euthanasia and exsanguination the secondary method. For all mouse studies, mice were age matched within 2 weeks and males and females randomized at a 50:50 ratio.
Using these mice, we first conducted an early intervention study in which mice were allowed to develop overt PDAC for a minimum of 15 weeks, at which point 100% of mice in our colony develop focal PDAC. At this time, mice were then randomized at a 50:50 male to female ratio into one of two treatment groups (N=7/group). […]

[7] = tested on: Pdx1-Cre×LSL-Kras^G12D×LSL-TP53^R172H+/+ (KPPC) mice; assay: KPPC mouse model of extremely aggressive PDAC, late intervention; type: in vivo; conditions: 5 mg/kg daily IP
Text: as §3
We next conducted a late intervention study using the Pdx1-Cre×LSL-Kras^G12D×LSL-TP53^R172H+/+ (KPPC) model of extremely aggressive PDAC. In our colony, KPPC mice have a median survival of 43 days (N=12) and develop extensive PDAC as early as two weeks of age. We, therefore, enrolled mice as described either when they developed a 0.5 cm tumor or at 4 weeks of age and placed them into one of two treatment groups (N=6/group).

SMILES	co-precipitation of BRD4 and EP300/CBP [1]	histone acetylation (H3K27ac) [2]	KRAS signaling and cell cycle pathways [3]	cell growth [4]	cell viability [5]	median survival post-enrollment [6] [days]	median survival post-enrollment [7] [days]
Cc1sc2c(c1C)C(c1ccc(Cl)cc1)=N[C@@H](CC(=O)OC(C)(C)C)c1nnc(C)n1-2 [JQ-1]	modestly reduced co-precipitation of BRD4 and EP300/CBP	compensatory increase in histone acetylation	modest suppression of KRAS and cell cycle pathways	modest growth suppression	reduction in cell viability		
COc1ccc(CCc2nc3cc(-c4c(C)noc4C)ccc3n2C[C@H](C)N2CCOCC2)cc1Cl [SGC-CBP30]				marginal effect on cell growth			
CCS(=O)(=O)Nc1cc(-c2cn(C)c3c(=O)[nH]ccc23)cc2c1ccn2C(C)(c1ccccn1)c1ccccn1 [XP-524]						108	50
